In ChEMBL document CHEMBL1201862, “PubChem BioAssay data set” (2004):
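Step 1: Grow cells in 96-well plates. Step 2: Expose to compound for 48 hours at 5 concentrations. Step 3: Interpolate endpoints linearly; if unreached, use highest concentration. GI50 is the concentration that inhibits growth by half.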 Activity calls are given as the source filed them. No stated cut-off is given here; in the data, active = GI50 up to about 1.1 µM and inactive = higher.

Experiments:
Assay in all cases: growth of human tumour cells (NCI), 48 h
HOP-92 = tested on: HOP-92
SNB-75 = tested on: SNB-75
MCF7 = tested on: MCF7
SK-MEL-28 = tested on: SK-MEL-28
NCI-H522 = tested on: NCI-H522
HCT-116 = tested on: HCT-116
OVCAR-8 = tested on: OVCAR-8
SN12C = tested on: SN12C
HL-60 = tested on: HL-60
RPMI-8226 = tested on: RPMI-8226
SF-268 = tested on: SF-268
PC-3 = tested on: PC-3
T47D = tested on: T47D
K562 = tested on: K562
M14 = tested on: M14
UACC-257 = tested on: UACC-257
MDA-N = tested on: MDA-N
HCT-15 = tested on: HCT-15
786-0 = tested on: 786-0
OVCAR-5 = tested on: OVCAR-5

Structure (SMILES)	GI50 (HOP-92)	GI50 (SNB-75)	GI50 (MCF7)	GI50 (SK-MEL-28)	GI50 (NCI-H522)	GI50 (HCT-116)	GI50 (OVCAR-8)	GI50 (SN12C)	GI50 (HL-60)	GI50 (RPMI-8226)	GI50 (SF-268)	GI50 (PC-3)	GI50 (T47D)	GI50 (K562)	GI50 (M14)	GI50 (UACC-257)	GI50 (MDA-N)	GI50 (HCT-15)	GI50 (786-0)	GI50 (OVCAR-5)
C[N+](C)(C)CCN(Cc1cccs1)c1ccccn1	3.6 µM (inactive)	59.8 µM (inactive)	> 100 µM (inactive)	> 100 µM (inactive)	40.8 µM (inactive)	> 100 µM (inactive)	> 100 µM (inactive)	90.4 µM (inactive)	> 100 µM (inactive)	> 100 µM (inactive)	86.7 µM (inactive)	> 100 µM (inactive)	> 100 µM (inactive)	64.3 µM (inactive)	> 100 µM (inactive)	> 100 µM (inactive)	> 100 µM (inactive)	> 100 µM	> 100 µM (inactive)	–
CCOC(=O)C1CCCC1S(=O)(=O)c1ccc(C)cc1 (configuration not stated)	> 100 µM (inactive)	84.1 µM (inactive)	> 100 µM (inactive)	> 100 µM (inactive)	> 100 µM (inactive)	> 100 µM (inactive)	> 100 µM (inactive)	> 100 µM (inactive)	> 100 µM (inactive)	> 100 µM (inactive)	> 100 µM (inactive)	> 100 µM (inactive)	> 100 µM (inactive)	> 100 µM (inactive)	> 100 µM (inactive)	–	> 100 µM (inactive)	> 100 µM	> 100 µM (inactive)	> 100 µM (inactive)
Oc1cc(-c2ccccc2)cn2c1nc1ccccc12	> 25.5 µM (inactive)	> 36.3 µM (inactive)	1.22 µM (inactive)	4.31 µM (inactive)	0.243 µM (active)	0.767 µM (active)	2.42 µM (inactive)	4.06 µM (inactive)	0.482 µM (active)	2.3 µM (inactive)	3.92 µM (inactive)	3.85 µM (inactive)	1.5 µM (inactive)	0.525 µM (active)	0.9 µM (active)	> 63.5 µM (inactive)	0.253 µM (active)	0.643 µM	3.21 µM (inactive)	> 100 µM (inactive)
[O-][S+](C(c1ccccc1)=P(c1ccccc1)(c1ccccc1)c1ccccc1)c1ccc(Cl)cc1 (configuration not stated)	13.1 µM (inactive)	60.4 µM (inactive)	17.9 µM (inactive)	22 µM (inactive)	11.8 µM (inactive)	20.7 µM (inactive)	28.1 µM (inactive)	–	11.5 µM (inactive)	6.98 µM (inactive)	20.4 µM (inactive)	23.2 µM (inactive)	7.83 µM (inactive)	14.2 µM (inactive)	25.5 µM (inactive)	12.5 µM (inactive)	13.3 µM (inactive)	34.9 µM	30.8 µM (inactive)	41.9 µM (inactive)
CCOC(=O)C(CS)NC(=O)CCCCCCCC(=O)NC(CS)C(=O)OCC (configuration not stated)	> 100 µM (inactive)	> 100 µM (inactive)	> 100 µM (inactive)	> 100 µM (inactive)	49.1 µM (inactive)	> 100 µM (inactive)	> 100 µM (inactive)	> 100 µM (inactive)	25.8 µM (inactive)	> 100 µM (inactive)	–	> 100 µM (inactive)	> 100 µM (inactive)	> 100 µM (inactive)	> 100 µM (inactive)	34.4 µM (inactive)	> 100 µM (inactive)	> 100 µM	> 100 µM (inactive)	> 100 µM (inactive)
C=C(C)[C@@H]1CCC2=C[C@H](OC2=O)[C@@]2(C)C[C@@H]2C(=O)/C=C(/C)C(=O)[C@H]1OC(C)=O	41.2 µM (inactive)	38.9 µM (inactive)	4.52 µM (inactive)	14.8 µM (inactive)	4.3 µM (inactive)	5.74 µM (inactive)	15.1 µM (inactive)	21.5 µM (inactive)	58.6 µM (inactive)	4.12 µM (inactive)	28.1 µM (inactive)	13 µM (inactive)	5.64 µM (inactive)	–	24.4 µM (inactive)	21.1 µM (inactive)	8.67 µM (inactive)	12.7 µM	11.4 µM (inactive)	15.5 µM (inactive)
Nn1c(Cc2ccc([N+](=O)[O-])cc2)n[nH]c1=O	> 100 µM (inactive)	> 100 µM (inactive)	> 100 µM (inactive)	> 100 µM (inactive)	> 100 µM (inactive)	> 100 µM (inactive)	> 100 µM (inactive)	> 100 µM (inactive)	> 100 µM (inactive)	> 100 µM (inactive)	> 100 µM (inactive)	> 100 µM (inactive)	> 100 µM (inactive)	> 100 µM (inactive)	> 100 µM (inactive)	> 100 µM (inactive)	> 100 µM (inactive)	> 100 µM	> 100 µM (inactive)	> 100 µM (inactive)
CCCC[C@@H]1CCN2C[C@@H](O)[C@@H](O)[C@@H]2[C@H]1O	> 100 µM (inactive)	89.9 µM (inactive)	> 100 µM (inactive)	> 100 µM (inactive)	> 100 µM (inactive)	> 100 µM (inactive)	> 100 µM (inactive)	> 100 µM (inactive)	> 100 µM (inactive)	> 100 µM (inactive)	> 100 µM (inactive)	> 100 µM (inactive)	> 100 µM (inactive)	> 100 µM (inactive)	> 100 µM (inactive)	> 100 µM (inactive)	> 100 µM (inactive)	> 100 µM	> 100 µM (inactive)	> 100 µM (inactive)
CC(C)(C)c1cc(C2COC(=O)COCC(=O)OCCOCCOCCO2)cc(C(C)(C)C)c1O (configuration not stated)	22.9 µM (inactive)	16.1 µM (inactive)	> 100 µM (inactive)	19.2 µM (inactive)	> 52.8 µM (inactive)	> 100 µM (inactive)	62.4 µM (inactive)	14.4 µM (inactive)	> 31.6 µM (inactive)	> 100 µM (inactive)	18.2 µM (inactive)	40.2 µM (inactive)	> 100 µM (inactive)	> 100 µM (inactive)	19.4 µM (inactive)	> 61.7 µM (inactive)	19.6 µM (inactive)	> 100 µM	21.4 µM (inactive)	28.4 µM (inactive)
CCOC(=O)C(=O)C(=O)NN(C)C1=NCCN1	> 100 µM (inactive)	> 100 µM (inactive)	> 100 µM (inactive)	> 100 µM (inactive)	> 100 µM (inactive)	> 100 µM (inactive)	> 100 µM (inactive)	> 100 µM (inactive)	> 100 µM (inactive)	> 100 µM (inactive)	> 100 µM (inactive)	> 100 µM (inactive)	> 100 µM (inactive)	> 100 µM (inactive)	> 100 µM (inactive)	> 100 µM (inactive)	> 100 µM (inactive)	> 100 µM	> 100 µM (inactive)	> 100 µM (inactive)
COC1C(N(C)C)=C(c2ccccc2)C(=O)N2CCc3ccccc3C12 (configuration not stated)	> 100 µM (inactive)	> 100 µM (inactive)	> 100 µM (inactive)	> 100 µM (inactive)	> 100 µM (inactive)	> 100 µM (inactive)	> 100 µM (inactive)	> 100 µM (inactive)	> 100 µM (inactive)	–	> 100 µM (inactive)	> 100 µM (inactive)	> 100 µM (inactive)	–	> 100 µM (inactive)	> 100 µM (inactive)	> 100 µM (inactive)	> 100 µM	> 100 µM (inactive)	> 100 µM (inactive)
C[C@@H](c1ccccc1)C(CC#N)[C@H]1CCC[C@]1(O)C#Cc1ccc2c(c1)OCO2 (some centres not stated)	14 µM (inactive)	16.5 µM (inactive)	18.4 µM (inactive)	16.1 µM (inactive)	15.3 µM (inactive)	–	16.9 µM (inactive)	–	18.3 µM (inactive)	23.2 µM (inactive)	19.6 µM (inactive)	15.9 µM (inactive)	15.7 µM (inactive)	18.1 µM (inactive)	16.9 µM (inactive)	18.2 µM (inactive)	16.7 µM (inactive)	16 µM	17.5 µM (inactive)	16.6 µM (inactive)
O=c1[nH]nc(-c2ccccc2)n1/N=C\c1ccccc1	> 100 µM (inactive)	> 100 µM (inactive)	> 100 µM (inactive)	> 100 µM (inactive)	> 100 µM (inactive)	> 100 µM (inactive)	> 100 µM (inactive)	> 100 µM (inactive)	> 100 µM (inactive)	> 100 µM (inactive)	31 µM (inactive)	> 100 µM (inactive)	> 100 µM (inactive)	> 100 µM (inactive)	–	> 100 µM (inactive)	> 100 µM (inactive)	> 100 µM	> 100 µM (inactive)	> 100 µM (inactive)
CC1=C2C(=O)NN=C2CCN1c1ccc(Br)cc1	> 100 µM (inactive)	> 100 µM (inactive)	> 100 µM (inactive)	> 100 µM (inactive)	> 100 µM (inactive)	> 100 µM (inactive)	> 100 µM (inactive)	> 100 µM (inactive)	41.3 µM (inactive)	–	> 100 µM (inactive)	> 100 µM (inactive)	70.3 µM (inactive)	–	> 100 µM (inactive)	> 100 µM (inactive)	> 100 µM (inactive)	93.5 µM	> 100 µM (inactive)	> 100 µM (inactive)
CCC(=O)NC(Nc1cccc(F)c1C)(C(F)(F)F)C(F)(F)F	> 100 µM (inactive)	> 100 µM (inactive)	> 100 µM (inactive)	> 100 µM (inactive)	> 100 µM (inactive)	> 100 µM (inactive)	> 100 µM (inactive)	–	> 100 µM (inactive)	> 100 µM (inactive)	> 100 µM (inactive)	> 100 µM (inactive)	> 100 µM (inactive)	> 100 µM (inactive)	> 100 µM (inactive)	> 100 µM (inactive)	> 100 µM (inactive)	> 100 µM	> 100 µM (inactive)	> 100 µM (inactive)
